Measurements as given in patent publication US11185616B2, “Implantable medical products, a process for the preparation thereof, and use thereof” (priority 2016, dated 2021).

Columns and labels:
S. epidermidis RP62A = assay: rifampicin resistance development, passaging experiment; assay type: cell-based; conditions: parallel culture with rifampicin-MHC doping
Experimental: (§1) 10 ml tubes with Müller-Hinton broth (MHB) was brought to a concentration of about 10^6 CPU with 0.01 ml of an overnight culture with S. epidermidis RP62A and S. aureus ATCC, and provided with the respective MHC of rifampicin and miconazole. An aliquot was taken from the overnight cultures, brought into new MHB tubes (about 10^6 CPU), and again incubated over night. This was repeated up to 50 times, and the resistant isolates were frozen.

S. aureus ATCC = assay: as above; assay type: cell-based; conditions: parallel culture with rifampicin-MHC doping
Experimental: as §1

[1] = test system: thromboxane A2 in platelets; conditions: Köfeler et al. 2000; cited from earlier work

SMILES | resistance frequencies (S. epidermidis RP62A) | resistance frequencies (S. aureus ATCC) | inhibition of synthesis of thromboxane A2 in platelets [1]
CO[C@H]1/C=C/O[C@@]2(C)Oc3c(C)c(O)c4c(O)c(c(/C=N/N5CCN(C)CC5)c(O)c4c3C2=O)NC(=O)/C(C)=C\C=C\[C@H](C)[C@H](O)[C@@H](C)[C@@H](O)[C@@H](C)[C@H](OC(C)=O)[C@@H]1C [rifampicin] | 10^−6 | 10^−6 | –
Clc1ccc(COC(Cn2ccnc2)c2ccc(Cl)cc2Cl)c(Cl)c1 (stereo not shown) [Miconazole, miconazole] | – | – | selectively inhibit
Clc1ccccc1C(c1ccccc1)(c1ccccc1)n1ccnc1 [clotrimazole] | – | – | selectively inhibit
